# Data as given in patent US9540355B2, “Irciniastatin analogues” (priority 2013, dated 2017).
# Columns and labels:
# [1] = system: IMR-90 human fibroblast cells; assay: IMR-90 cytotoxicity assay; format: cell-based; conditions: IMR-90, 72 h, quiescent non-dividing cells, 0.1% FBS, 3 days incubation, read-out: IC50 (nM) Quiescent IMP-90
# Source text: IMR-90 Cytotoxicity Assay.
# To evaluate the effect of compounds of the invention on non-proliferating normal cells, an in vitro cytotoxicity assay developed to distinguish between true antiproliferative activity and general cellular cytotoxicity unrelated to proliferation was used. Rudolph-Owen L A, Salvato K, Cheng C, Wu J, Towle M J and Littlefield B A: A 96-well plate cell-based assay to quantify undesired cytotoxic effects against quiescent non-dividing cells. Proc Amer Assoc Cancer Res 45: 264-265, 2004. In brief, IMR-90 human fibroblast cells, obtained from ATCC, were grown for 4 days to confluency in MEM containing 10% FBS and supplemented with L-glutamine, penicillin/streptomycin. After washing, the medium was replaced with complete MEM containing 0.1% FBS and the cells were cultured for 3 additional days to achieve complete quiescence. A compound of the invention or vehicle control was then added in the continued presence of 0.1% FBS, followed by incubation for 3 days at 37° C. Cell viability was assessed by the measurement of cellular ATPlevels using CellTiter-Glo reagent (Promega).
# [2] = system: MCF-7; conditions: breast MCF-7; cited from earlier work
# [3] = system: MOLT-4; conditions: leukemia MOLT-4; read-out: LC50 (the source's name); cited from earlier work
# [4] = system: RPMI-8226; conditions: leukemia RPMI-8226; read-out: LC50 (the source's name); cited from earlier work
# [5] = system: SR; conditions: leukemia SR; read-out: LC50 (the source's name); cited from earlier work
# [6] = system: MDA-MB-435; conditions: breast cancer MDA-MB-435; read-out: LC50 (the source's name); cited from earlier work
# [7] = system: HCC-2998; conditions: colon cancer HCC-2998; read-out: LC50 (the source's name); cited from earlier work
structure (smiles),measurement,setting,value
"C=C(C)C[C@H](OC)[C@H](O)C(=O)N[C@@H](OC)[C@@H]1C[C@@H](O)C(C)(C)[C@@H](C[C@H](O)[C@@H](C)[C@H]2Cc3c(C)c(O)cc(O)c3C(=O)O2)O1 [Irciniastatin A, (+)-Irciniastatin A]",IC50,[1],27 nM
same,Growth Inhibition of Cancer Cell Lines (GI50),[2],3.2 ng/mL
same,CC50,[3],> 25000 nM
same,CC50,[4],> 25000 nM
same,CC50,[5],> 25000 nM
same,CC50,[6],< 2.5 nM
same,CC50,[7],360 nM
